Assay results taken from patent US20150080844A1, “THERAPY FOR KIDNEY DISEASE AND/OR HEART FAILURE BY INTRADERMAL INFUSION” (Medtronic, Inc., priority 2012, published 2015).
Where two headings read alike, the source gives them in different places.

Assays:
[1] = in vivo, iv, 50 ug; cited from earlier work
[2] = in vivo, cited from earlier work
clinical = assay: clinical; design: species or system humans; settings: in vivo; for bioavailability: F (bioavailability)
Method: (§1) Osterode et al. published plasma concentration data for humans injected with ANP by either SQ or IV bolus. FIG. 5 presents the IV bolus data (FIG. 5A) and SQ bolus data (FIG. 5B) from the Osterode et al. with selected points digitized shown by open circles.
(§2) The digitized data points from FIG. 5A and FIG. 5B were baseline-corrected and analyzed using a commercial pharmacokinetic analysis software package (Phoenix v6.2, Pharsight, Cary, N.C.). Non-compartmental analysis (NCA) was performed first, followed by compartmental modeling. Bioavailability for administration into the SQ space (F) was estimated by dividing the area-under-the-curve (AUC) for the SQ bolus (FIG. 5B) by the AUC IV bolus (FIG. 5A), which was assumed to have 100% bioavailability. The slope of the terminal phase (λZ) for the IV and SQ data from FIG. 5 was estimated using linear regression. The estimate for λZ was converted to a half-life (t1/2) using Equation 1.
Similarly, the one-compartmental model for SQ bolus injection can be modeled by Equations 4 and 5, where Aa is the amount of drug in the injection site (pmol), ka is the absorption rate constant (1/min), and F is the bioavailability as a unitless decimal. The initial estimates for primary model parameters ke and V/F were taken from the results of the NCA analysis of the IV data (ke=λZ) from the IV bolus data in FIG. 5A from Osterode et al. The initial estimate for the primary model parameter ka was taken from the results of the NCA analysis of the SQ data (ka=λZ) from the SQ bolus data in FIG. 5B. Clearance (CL) and t½ were calculated as secondary model parameters.
Table 1 reports the values for AUC, elimination t1/2, volume of distribution (V) and clearance (CL) reported by Osterode et al. compared to those obtained from the NCA analysis of the digitized data as described above.
The results of the one-compartment modeling of the data from Osterode et al. are reported in Table 2 and FIG. 7, where the present NCA results are also included for comparison. FIGS. 7A (log scale) and 7B (non-log scale) show a model for a 50 μg IV bolus and FIGS. 7C (log scale) and 7D (non-log scale) show a model for a 50 μg SQ bolus. Both the NCA and compartmental analysis estimate the bioavailability to be approximately 20%. It is notable that the estimates for ka from the SQ bolus data are nearly identical for the NCA and compartmental analysis (0.039 min^−1), while the compartmental analysis estimate for ke is 2.6-times greater than the NCA estimate (0.26 vs. 0.099 min^−1).

[3] = design: species or system humans; settings: in vivo
Method: as §1
as §2, with “1. […]” for “1.”
Similarly, the one-compartmental model for SQ bolus injection can be modeled by Equations 4 and 5, where Aa is the amount of drug in the injection site (pmol), ka is the absorption rate constant (1/min), and F is the bioavailability as a unitless decimal. […] Clearance (CL) and t½ were calculated as secondary model parameters. […]

[4] = intradermal delivery; literature; cited from earlier work

Row | Compound | AUC [1] | F (bioavailability) ([2]; human) | AUC ([2]; 50 ug) | mean terminal half-life, SQ bolus compared to IV bolus ([2]; 50 ug) | AUC (clinical; human, 50 ug) | bioavailability (clinical; human) | F (bioavailability) (clinical; human, iv) | bioavailability (clinical; human, iv) | V/F (clinical) | compartmental analysis estimate for ke relative to NCA estimate (clinical) | ke (clinical) | ke/ka (elimination greater than absorption) (clinical) | AUC ([3]; human, iv, 50 ug) | ke [3] | bioavailability (in words) [4]
1 | CC[C@H](C)[C@@H]1NC(=O)[C@H](CCCNC(=N)N)NC(=O)[C@H](CC(=O)O)NC(=O)[C@H](CCSC)NC(=O)[C@H](CCCNC(=N)N)NC(=O)CNC(=O)CNC(=O)[C@H](Cc2ccccc2)NC(=O)[C@@H](NC(=O)[C@H](CO)NC(=O)[C@H](CO)NC(=O)[C@H](CCCNC(=N)N)NC(=O)[C@H](CCCNC(=N)N)NC(=O)[C@H](CC(C)C)NC(=O)[C@@H](N)CO)CSSC[C@@H](C(=O)N[C@@H](CC(N)=O)C(=O)N[C@@H](CO)C(=O)N[C@@H](Cc2ccccc2)C(=O)N[C@@H](CCCNC(=N)N)C(=O)N[C@@H](Cc2ccc(O)cc2)C(=O)O)NC(=O)CNC(=O)[C@H](CC(C)C)NC(=O)CNC(=O)[C@H](CO)NC(=O)[C@H](CCC(N)=O)NC(=O)[C@H](C)NC(=O)CNC1=O [ANP, atrial natriuretic peptide] | 1793 pmol·min/L | 19.2% | 345 pmol·min/L | 3 fold | 344 pmol·min/L | ~20% | 19.9% | ~20% | 167 L | 2.6 times | 0.26 min⁻¹ | 6.6 | 1731 pmol·min/L | 0.099 min⁻¹ | 
2 | Entanercept |  |  |  |  |  |  |  |  |  |  |  |  |  |  | high bioavailability
3 | Somatropin |  |  |  |  |  |  |  |  |  |  |  |  |  |  | high bioavailability
